Assay results: US7390836B2, “Small molecules used to increase cell death” (priority 1999, dated 2008)

Tests used:
Format in all cases: cell-based
Jurkat cells [1] = experiment: Caspase activation with fluorogenic substrates; conditions: for caspase-3-like activity (DEVD.amc) / caspase-9-like activity (LEHD.amc): BH3I-1 100 μM, BH3I-2 50 μM; for time of maximum activation of both caspases: after addition of the BH3I
Description: (§1) FIG. 6F is a graph showing the time course of caspase activation in Jurkat cells, as assayed using a QuantiPak kit (Biomol). The cells were treated with 100 μM of BH3I-1 (triangles) or 50 μM of BH3I-2 (squares) for 2, 6, 12, or 24 hr. A fluorescence based assay of caspase-3 (Ac-DEVD-AMC) activity was then performed. The numbers represent relative AMC fluorescence in each sample compared to the value obtained with untreated Jurkat cells incubated for 24 hours, set at 1. Standard deviation values are also shown.
as §1, with “6G” for “6F”, “12” for “12,”, “caspase-9 (Ac-LEHD-AMC)” for “caspase-3 (Ac-DEVD-AMC)”
FIG. 6H is a graph showing the comparison of caspase-9 (Ac-LEHD-AMC) (open bars) and caspase-8 (Ac-IETD-AMC) (closed bars) activation 12 and 24 hr after treatment of Jurkat cells with BH3Is.
To evaluate the activation of caspases by BH3Is, the activation of caspases in the presence of these compounds was measured using the preferred caspase-3 and caspase-9 fluorogenic substrates DEVD.amc and LEHD.amc. […] Activation of both caspases followed an essentially identical time course and reached a maximum 12 hours after addition of the BH3I. If BH3Is induce apoptosis through a mitochondrial pathway, caspase-9 should be activated before caspase-8, since the latter is a mediator of the death receptor pathway at the plasma membrane (Cryns et al., Genes Dev. 12:1551-70, 1998 [published erratum appears in Genes Dev. 13:371, 1999]). Therefore, the levels of caspase-9 and caspase-8 activity were compared by measuring LEHD.amc/IETD.amc cleavage activities.

HeLa cells = experiment: Cell death by cellular ATP levels; conditions: 48 hours
Description: (§2) HeLa cells, U-937 cells, or Jurkat cells, each of which endogenously express both Bak and Bcl-xL, were contacted with each of the BH3I chemical compounds identified above, by adding the compound to the cell culture media. Forty-eight hours after the cells received the chemical compound the cell culture sample was evaluated for the level of cell death that had occurred in response to the chemical compound. The level of cell death was determined by measuring cellular ATP levels, wherein a decrease in cellular ATP levels indicated an increase in cell death. In each cell line, cell death was increased in the sample that received one of the above-identified compounds.

U-937 cells = experiment: Cell death by cellular ATP levels; conditions: 48 hours
Description: as §2

Jurkat cells [2] = experiment: Cell death by cellular ATP levels; conditions: 48 hours
Description: as §2

| SMILES | caspase-3-like activity (DEVD.amc) (Jurkat cells [1]) | caspase-9-like activity (LEHD.amc) (Jurkat cells [1]) | time of maximum activation of both caspases (Jurkat cells [1]) | GI50 (HeLa cells) | GI50 (U-937 cells) | GI50 (Jurkat cells [2]) |
| --- | --- | --- | --- | --- | --- | --- |
| CC(C)C(C(=O)O)N1C(=O)C(=Cc2ccc(Br)cc2)SC1=S (stereo in doubt) [BH3I-1] | increase | increase | 12 h | – | – | – |
| O=C(Nc1cc(S(=O)(=O)c2ccc(Cl)cc2)ccc1Cl)c1cc(Cl)cc(Br)c1O [BH3I-2] | increase | increase | 12 h | 10 to 15 µM | 10 to 15 µM | 10 to 15 µM |
